Values joined by “and” are separate entries in the source; they are usually repeats but may differ in a detail not shown here. Identical values can stand only once.
Key:
[1] = Mouse weight changes and symptoms, intraperitoneal administration (B16F10 angiogenesis experiment); assay type: in vivo; conditions: for Mouse weight changes (%): ip, Example 1 20 mg/kg/day, topotecan 2 mg/kg/2 day
Method: (§1) Particularly, the experimental group composed of 5 female mice (C57BL) at 6 weeks was transplanted with B16F10 melanoma cell line. After the cancer cells were grown, the mice were treated with the compound of formula 1 via intraperitoneal injection at the dose of […] for 5 days. Inhibition of angiogenesis and the tumor growth were observed. In the meantime, the control group was treated with the mixed solution comprising 10% DMAC, 10% cremophor and 80% buffer (pH 10) every day. The comparative group was treated with topotecan at the dose of 2 mg/kg once every other day. Weight changes and the newly generated blood vessels were measured and the results are shown in Table 7, Table 8, FIG. 7, and FIG. 8. The tumor volume shown in Table 8 was calculated by the mathematical formula 1 of experimental example 4 and the inhibition rate was calculated by the mathematical formula 2 of experimental example 4.

[2] = test system: B16F10 melanoma cell line; assay: Angiogenesis inhibition activity in B16F10 tumor tissue; assay type: in vivo, mouse; conditions: FIG. 7, FIG. 8
Method: The following experiment was performed to investigate if the compound of formula 1 could inhibit angiogenesis along with the tumor growth.
as §1

[3] = test system: VEGF (vascular endothelial growth factor A); assay: Expression of HIF-1 target gene VEGF (RT-PCR, HCT116); assay type: cell-based, human
Method: (§2) To investigate HIF-1 inhibition activity of the compound of the present invention, the inhibition of VEGF and EPO, two most representative HIF-1 target genes, by the compound of formula 1 prepared in example 1 was measured. Particularly, the colon cancer cell line HCT116 was used for the measurement as follows.
(§3) The human colon cancer cell line HCT116 was seeded in cell culture vessel at the density of 2×10^5 cell/ml, followed by culture for 24 hours. The cells were pretreated in hypoxic condition (oxygen 1%; nitrogen 94%; carbon dioxide 5%) for 4 hours to induce the accumulation of HIF-1α. The cells were treated with the compound of formula 1 prepared in example 1 at the concentrations of 0, 10, and 20 μM, followed by culture for 12 hours in hypoxic condition. Then, mRNA was extracted by using trizol. To compare the expression with that of HIF-1 target gene treated with the compound prepared in comparative example 1, the control was treated with the compound of comparative example 1 at the concentrations of 0, 10, 15, and 20 μM. From the extracted mRNA, cDNA was synthesized by using RT-PCR kit (Invitrogen). The amounts of mRNAs of the HIF-1α target genes VEGF (vascular endothelial growth factor A) and EPO (erythropoietin) were measured by using RT-PCR and real-time RT-PCR. […]

[4] = test system: B16F10 melanoma cell line; assay: Cancer metastasis inhibition activity, B16F10 melanoma lung colonies in C57BL mice; assay type: in vivo, mouse; conditions: Example 1 20 mg/kg/day, topotecan 2 mg/kg/2 day; for Metastasis colony number: day 12, ip; for Metastasis inhibition rate (%): day 12, vs control
Method: Particularly, the experimental group composed of 6 female mice (C57BL) at 6 weeks was transplanted with B16F10 melanoma cell line. After the cancer cells were grown, the mice were treated with the compound of formula 1 via intraperitoneal injection at the dose of […] every day for 12 days. Inhibition of angiogenesis and the tumor growth were observed. In the meantime, the control group was treated with purified water every day. The comparative group was treated with topotecan at the dose of 2 mg/kg once every other day. Weight changes and cancer metastasis were measured and the results are shown in Table 9, Table 10, and FIG. 10.
As shown in Table 10 and FIG. 10, the mice were sacrificed on the last day of experiment (day 12) and then cancer colonies in lung were counted by the naked eye.

[5] = test system: HCT116 cells; assay: Cell migration inhibition activity (wound-healing experiment); assay type: cell-based, human; conditions: 10 μM, 48 hours, FIG. 9
Method: To evaluate cell migration inhibition effect of the compound of example 1, wound-healing experiment was performed. Particularly, an insert (Ibidi) was placed in the center of a 6-well cell culture dish and HCT116 cells (3×10^5 cell/ml) were loaded in each well by 70 μl. Medium was filled in around the insert. 24 hours later, the insert was carefully eliminated by using forceps, and the cells were washed with medium carefully not to be detached from the bottom of the culture dish. The control group was added with the diluted medium supplemented with DMSO. The experimental group was added with the diluted medium supplemented with 10 μM of the compound of example 1. 48 hours later, cell migration in each group was observed.

[6] = test system: human rectal cancer cell line HCT116; assay: In vivo anticancer activity, intravenous injection, HCT116 rectal cancer in nude mice; design: species or system mouse; conditions: Example 1 30 mg/kg/day, topotecan 2 mg/kg/day; for Tumor volume changes (mm^3): iv; for Inhibition rate (%) of tumor volume: vs control
Method: To evaluate the inhibition effect of the compound prepared in example 1 administered via intravenous injection on the growth of rectal cancer, in vivo anticancer activity in mouse was measured. Particularly, nude-mice were grouped for experimental and control groups (5 mice per group). Changes in body weight, tumor volume, and tumor weight were measured to evaluate in vivo anticancer activity.
Female nude mice at 6 weeks (BALB/c nu/nu, Charles River) were raised in a germ-free facility where temperature and humidity were maintained at proper levels during the whole experimental period. After anesthetizing each mouse, the human rectal cancer cell line HCT116 was transplanted in rectal tissues at the density of 4×10^7 cells/mouse, and then the opened rectum was sealed with surgical clips. After transplanting the rectal cancer cell line, the tumor volume was measured with calipers. When the tumor volume reached 54.5 mm^3, the compound of the present invention prepared in example 1 was treated thereto. Particularly, for the experimental group, the compound of example 1 was dissolved in the solvent composed of saline (80%), DMAC (10%), and tween 80 (10%), which is indicated as ‘solvent A’ hereinafter, at the concentration of 30 mg/kg. […] The control was treated with the solvent A only without the compound once a day via oral administration at the dose of 15 ml/kg. The comparative group was treated with the solvent A containing topotecan (2 mg/kg) via intravenous injection once a day at the dose of 15 ml/kg. The weight and the tumor volume were measured once a day on day 0, 2, 3, 4, 5, 6, and 8.
Tumor volume was calculated by the following mathematical formula 1. To investigate the toxicity according to the repeated intravenous administration of the compound of example 1, mouse weight changes were observed and presented in Table 3. Inhibition rate (%) in Table 4 was calculated by the following mathematical formula 2, which indicates the inhibition of tumor growth by the compound presented by %. Tumor Volume(mm^3)=(major axis length of tumor cells, mm)×(minor axis length of tumor cells, mm)^2×0.5 [Mathematical Formula 1] Inhibition Rate (%)=[(Tumor Volume of Control−Tumor Volume of Experimental Group)/(Tumor Volume of Control)]×100 [Mathematical Formula 2]

[7] = test system: EPO (erythropoietin); assay: Expression of HIF-1 target gene EPO (RT-PCR, HCT116); assay type: cell-based, human; conditions: mRNA, HCT116, hypoxic condition, 0, 10, 20 μM; FIG. 5
Method: as §2, §3

COC(=O)c1cccc(NC(=O)/C=C/Oc2ccc(C34CC5CC(CC(C5)C3)C4)cc2)c1 [Example 1, (E)-3-[3-(4-Adamantan-1-yl-phenoxy)-acryloylamino]-benzoic acid methyl ester]
body weight on the final day of observation (day 5) compared with control ([1]; 20 mg/kg ip, C57BL mice): not significantly reduced
symptoms during repeated intraperitoneal injection ([1]; 20 mg/kg ip, C57BL mice, 5 days): no specific symptom was observed
Mouse weight changes (%) ([1]; day 0): 100.0 ± 0.0%
Mouse weight changes (%) ([1]; day 2): 102.6 ± 1.6%
Mouse weight changes (%) ([1]; day 5): 107.6 ± 3.9%
reduction of angiogenesis compared with non-treated group [2]: ~40%
expression of GAPDH ([3]; internal control gene, HCT116, hypoxic condition): did not change
expression of VEGF ([3]; mRNA, HCT116, hypoxic condition, 0, 10, 20 μM, FIG. 5): inhibited the expressions of VEGF and EPO, the HIF-1 target genes, dose-dependently
Metastasis colony number [4]: 207 and 207.0 ± 47.5
Metastasis inhibition rate (%) [4]: 32.5%
cell migration [5]: significantly reduced cell migration
Tumor volume changes (mm^3) ([6]; day 0): 0.0 ± 0.0 mm^3
Tumor volume changes (mm^3) ([6]; day 2): 19.4 ± 5.8 mm^3
Inhibition rate (%) of tumor volume ([6]; day 2): 35.3%
Tumor volume changes (mm^3) ([6]; day 4): 50.6 ± 20.9 mm^3
Inhibition rate (%) of tumor volume ([6]; day 4): 52.1%
Tumor volume changes (mm^3) ([6]; day 6): 114.3 ± 36.8 mm^3
Inhibition rate (%) of tumor volume ([6]; day 6): 47.0%
Tumor volume changes (mm^3) ([6]; day 8): 176.8 ± 50.0 mm^3
Inhibition rate (%) of tumor volume ([6]; day 8): 45.7%
expression of EPO [7]: inhibited the expressions of VEGF and EPO, the HIF-1 target genes, dose-dependently

CC[C@@]1(O)C(=O)OCc2c1cc1n(c2=O)Cc2cc3c(CN(C)C)c(O)ccc3nc2-1 [topotecan, reference compound]
Mouse weight changes (%) ([1]; day 0): 100.0 ± 0.0%
Mouse weight changes (%) ([1]; day 2): 101.2 ± 0.6%
Mouse weight changes (%) ([1]; day 5): 103.7 ± 1.4%
Metastasis colony number [4]: 148.3 ± 49.4
Metastasis inhibition rate (%) [4]: 51.7%
Tumor volume changes (mm^3) ([6]; day 0): 0.0 ± 0.0 mm^3
Tumor volume changes (mm^3) ([6]; day 2): 16.5 ± 3.9 mm^3
Inhibition rate (%) of tumor volume ([6]; day 2): 44.9%
Tumor volume changes (mm^3) ([6]; day 4): 44.3 ± 10.1 mm^3
Inhibition rate (%) of tumor volume ([6]; day 4): 58.1%
Tumor volume changes (mm^3) ([6]; day 6): 69.1 ± 13.2 mm^3
Inhibition rate (%) of tumor volume ([6]; day 6): 67.9%
Tumor volume changes (mm^3) ([6]; day 8): 93.1 ± 22.3 mm^3
Inhibition rate (%) of tumor volume ([6]; day 8): 71.4%
